The results in this text go back to US11958842B2, “Substituted phenazines and methods of treating cancer and bacterial diseases” (Adjutec Pharma AS, priority 2016, dated 2024).

In series [1] the test system is normal rat kidney epithelial (NRK) cells. Description: Cytotoxicity, WST-1 and nuclear morphology (Example 73). The series is classed as cell-based. As to the method: (§1) All cell culturing media and serum were from Sigma-Aldrich (St. Louis, Mo., USA). Product Nos. are given in parentheses. The human acute myeloid leukemia cell line MOLM-13 was cultured in RPMI medium (R5886) enriched with […] (F7524) and 0.2 mM L-glutamine (G7513). The normal rat kidney epithelial (NRK) and the rat cardiomyoblast (H9c2) cells were cultured in DMEM medium (D6429) enriched with 10% fetal bovine serum (F7524). All cell lines were additionally supplemented with 100 IU/mL penicillin and […] (P0781). The cells were cultured in a humidified atmosphere either under 2% or 20% O2 at 37° C.
(§2) All analogues were dissolved in DMSO (D5879, Sigma-Aldrich) at concentrations between 2.5 and 20 mM before testing. For cytotoxic testing, the MOLM-13 cells were seeded as 20,000 cells/well, while NRK and H9c2 cells were seeded as 5,000 cells/well in 96-well Microplates (#167008, Thermo Scientific™ Nunc™ MicroWell™) with 100 μL medium/well. The cells were exposed to various concentrations of iodinin or its analogues for 24 hrs before the cell proliferation reagent WST-1 was used to assess the viability, in accordance with the manufacturer's instructions (11644807001, Roche Diagnostics, Sigma-Aldrich). The cells were next fixed in 2% buffered formaldehyde (pH 7.4) with the DNA-specific dye Hoechst 33342 (Polysciences Inc.) and assessed for cell death by UV-microscopy based on nuclear morphology. The highest concentration of analogue corresponded to 1% of DMSO, which alone gave less than 7% cell death as judged by nuclear morphology.
(§3) EC50 values were determined by analyses of WST-1 signal results as well as microscopic evaluation of cell death by four-parameter regression analyses using the SigmaPlot software (Systat Software inc. San Jose, Calif.):
(§4) [formula] where Y is the response (WST-1 signal or percent apoptosis), min and max are minimum and maximum response, X is concentration of analogue, EC50 equals the point of inflection, i.e. the point that gives half of maximum response, and h is the Hill's slope of the curve. The two methods gave consistent response curves for each analogue. In the case of Tirapazamine, where its colour interfered with the WST-1 signal, only microscopic evaluation of Hoechst stained cells was used in order to calculate its EC50 values.
In general terms: Tetrazolium dyes change colour on reduction, which living cells bring about.

For series [2], the system named is rat cardiomyoblast (H9c2) cells. The description is as above. Type of series: cell-based. The following applies: read-out: EC50 (μM) H9c2 19% O2. As to the method: as §1, §2, §3, §4
In series [3] the test system is human acute myeloid leukemia cell line MOLM-13. Described as above. Type of series: cell-based. As for the experimental part:
as §1, §2, §3, §4

The next series has as its system hepG2. Kind of series: Cytotoxicity (Example 73, Table 2). Type of series: cell-based. The following applies: Homo sapiens, read-out: EC50 (μM) hepG2.
The nature of series [4]: Parallel artificial membrane permeability assay (PAMPA). The following applies: for LogPeff: PAMPA, 50 μM in PBS, room temperature, five hours; for Permeability: PAMPA class by ranges of Bennion et al. As to the method:
The Corning Gentest™ pre-Coated parallel artificial membrane permeability assay PAMPA Plate System was from Cording Discovery Labware (Bedford, USA). The compounds were tested in room temperature at 50 μM using PBS as buffer. A total of 300 μl of the compound solution was added to each well of the donor plate, and 200 μl of PBS was added to the receiver filter plate. After incubation for five hours, 50 μl of the donor or acceptor well were injected into a reversed phase HPLC column (Kromasil 100-5 C18 150-4.6 mm, Akzo Nobel, Sweden) connected to a Merck-Hitachi LaChrome HPLC-system (VWR, WestChester, USA) with a L-7455 diode array detector. Mobile phase A was 0.05% aqueous TFA, and mobile phase B was acetonitrile. The flow rate was 1.6 ml/min and compounds eluted between 1 and 4.5 minutes was eluted during a 6.5 min gradient from 90:10% mobile phase A:B to 0:100% mobile phase A:B. The ratio of the compound concentrations in the donor and acceptor compartment was calculated after integration of the peaks at 285 nm. Peff was calculated as described in [Bennion B J, Be N A, McNerney M W, Lao V, Carlson E M, Valdez C A, et al. Predicting a Drug's Membrane Permeability: A Computational Model Validated With in Vitro Permeability Assay Data. The journal of physical chemistry B. 2017; 121(20):5228-37.]. Membrane permeability were classified by the range defined by Bennion et al., allowing for us to divide the compounds into four groups, compounds with high permeability (LogPeff>−5.33), intermediate permeability (LogPeff>−5.66 and <−5.33), low permeability (LogPeff>−6.14 and <−5.66) impermeable (LogPeff<−6.14).
Background: In PAMPA a lipid-coated filter parts donor from acceptor wells.

In the next series the test system is Molm13 cells. Kind of series: Anti-AML activity, WST-1 viability (Example 72). The series is classed as cell-based. The following applies: Homo sapiens, Molm 13 cells, WST-1. As for the experimental part: Dry powder of analogs were dissolved in DMSO. IPC-18 rat AML cells (Lacaze, N. et al. Leuk. Res. 1983, 7, 145.) were cultured in DMEM medium (Sigma-Aldrich, St. Louis, Mo., USA) supplemented with 10% horse serum (Invitrogen, Carlsbad, Calif., USA), and antibiotics (50 U/mL of penicillin and 0.05 mg/mL streptomycin). Molm13 (Matsuo, Y. et al. Leukemia 1997, 11, 1469.) cells were cultured in RPMI supplemented with antibiotics (50 U/mL of penicillin and 0.05 mg/mL streptomycin) and 10% fetal bovine serum (FBS, Invitrogen, Carlsbad, Calif.) and kept in exponential growth before the experiments. Dilution series of iodinin analogs were added to medium and cell suspension added to reach a final cell concentration of 150 000 cells/ml in 0.1 mL in a 96 well tissue culture plate. […] The cells were incubated with the iodinin analogs for 22 h before WST-1 was added according to the manufacturers protocol, and the cells incubated further in 2 h. Mitochondrial conversion of WST-1 to its colored metabolite was measured by a plate reader at 450 nm, with 620 nm as the reference wavelength. The cells were next fixed by adding 4% buffered formaldehyde (PBS, pH 7.4, supplemented with 0.01 mg/mL Hoechst 33342 for nuclear visualization) to the cell suspension at 1:1 (v/v) ratio (final concentration of formaldehyde:[…]). The cells' nuclear and surface morphology were examined microscopically and results compared with the WST-1 viability assay. The results given in Table I are based on WST-1 data.

[5] abbreviates: read-out: EC50 (μM) NRK 2% O2, 2% O2, 24 hours of incubation.
[6] abbreviates: read-out: EC50 (μM) NRK 19% O2, 19% O2, 24 hours of incubation.
Where [7] appears, read: H9c2, 19% O2, 24 hours of incubation.
The mark [8] stands for this setting: MOLM-13, 2% O2, 24 hours of incubation, read-out: EC50 (μM) MOLM-13 2% O2.
Setting [9] is: MOLM-13, 19% O2, 24 hours of incubation, read-out: EC50 (μM) MOLM-13 19% O2.
[10] abbreviates: Rattus norvegicus, H9c2, 19% O2, 24 hours of incubation.
The mark [11] stands for this setting: Homo sapiens, MOLM-13, 2% O2, 24 hours of incubation, read-out: EC50 (μM) MOLM-13 2% O2.
Where [12] appears, read: Homo sapiens, MOLM-13, 19% O2, 24 hours of incubation, read-out: EC50 (μM) MOLM-13 19% O2.
The mark [13] stands for this setting: 2% O2, 24 h of incubation, read-out: Molm 13 IC50 2% O2.
[14] abbreviates: 20% O2, 24 h of incubation, read-out: Molm 13 IC50 20% O2.
[15] abbreviates: Rattus norvegicus, 2% O2, 24 hours of incubation, read-out: EC50 (μM) NRK 2% O2.
Where [16] appears, read: Rattus norvegicus, 19% O2, 24 hours of incubation, read-out: EC50 (μM) NRK 19% O2.
[17] abbreviates: Rattus norvegicus, 24 h, read-out: EC50 (μM) NRK 2% O2, NRK, 2% O2, 24 hours of incubation.
Setting [18] is: Rattus norvegicus, 24 h, read-out: EC50 (μM) NRK 19% O2, NRK, 19% O2, 24 hours of incubation.

Read-outs that look alike come from different tables or passages of the source. Marks after values point to notes of the source that are not given here.

For the compound `CN1CCN(C(=O)Oc2cccc3c2[n+]([O-])c2cc(Br)c(Br)cc2[n+]3[O-])CC1` [Example 59, 7,8-dibromo-1-((4-methylpiperazine-1-carbonyl)oxy)phenazine 5,10-dioxide], the EC50 (commonly the midpoint of the concentration-response curve) was determined as 7.6 ± 0.6 µM in series [1] (setting [5]); 6.2 ± 0.02 µM in series [1] (setting [6]); 2.2 ± 0.53 µM in series [2] (setting [7]); 0.23 ± 0.03 µM in series [3] (setting [8]); 0.41 ± 0.04 µM in series [3] (setting [9]); 40 µM in the series on hepG2 (HepG2, 24 h).
Consider `CC(C)(C)C(=O)Oc1cccc2c1[n+]([O-])c1cccc(OC(=O)C(C)(C)C)c1[n+]2[O-]` [Example 16d, 1,6-bis(pivaloyloxy)phenazine 5,10-dioxide], for which the LogPeff in series [4] is reported as −5.86*. Moreover, the EC50 was over 50 µM in series [2] (setting [10]), 8.9 ± 1.71 µM in series [3] (setting [11]) and 11 ± 0.7 µM in series [3] (setting [12]). The IC50 (in general, the concentration that inhibits the measured activity by half) is 5.59 µM with Molm13 cells (setting [13]) and 4.05 µM in the series with Molm13 cells (setting [14]).
In series [4], `CCOC(=O)COc1cccc2c1[n+]([O-])c1cccc(O)c1[n+]2[O-]` [Example 5c, 1-(2-(ethoxy)-2-oxoethoxy)-6-hydroxyphenazine 5,10-dioxide] came in with a LogPeff of −4.70. The EC50 was found to be 18 ± 1.5 µM in series [1] (setting [15]); 11 ± 1.6 µM in series [1] (setting [16]); 15 ± 0.9 µM in series [2] (setting [10]); 0.49 ± 0.12 µM in series [3] (setting [11]); 0.57 ± 0.06 µM in series [3] (setting [12]). The figures for the IC50 with Molm13 cells (setting [13]) and with Molm13 cells (setting [14]) were 0.65 µM and 0.85 µM, respectively.
`COc1cccc2c1[n+]([O-])c1cccc(OC(=O)N3CCN(C)CC3)c1[n+]2[O-]` [Example 8b, 1-methoxy-6-((4-methylpiperazine-1-carbonyl)oxy)phenazine 5,10-dioxide] gave a LogPeff in series [4] of −5.77. The EC50 stood at 39 ± 4.2 µM in series [1] (setting [17]); 26 ± 2.1 µM in series [1] (setting [18]); 26 ± 0.9 µM in series [2] (setting [7]); 0.98 ± 0.08 µM in series [3] (setting [8]); 1 ± 0.06 µM in series [3] (setting [9]); 90 µM with hepG2 (HepG2, 24 h).
With `Cc1cc2c(cc1C)[n+]([O-])c1c(OC(=O)N3CCN(C)CC3)cccc1[n+]2[O-]` [Example 8d, 7,8-dimethyl-1-((4-methylpiperazine-1-carbonyl)oxy)phenazine 5,10-dioxide], the EC50 turned out to be 13 ± 0.7 µM in series [1] (setting [17]); 11 ± 1.5 µM in series [1] (setting [18]); 9.4 ± 0.55 µM in series [2] (setting [7]); 0.54 ± 0.06 µM in series [3] (setting [8]); 0.63 ± 0.05 µM in series [3] (setting [9]); 105 µM in the series with hepG2 (HepG2, 24 h).
For `CN1CCN(C(=O)Oc2cccc3c2[n+]([O-])c2cc4ccccc4cc2[n+]3[O-])CC1` [Example 8e, 1-((4-methylpiperazine-1-carbonyl)oxy)benzo[b]phenazine 5,12-dioxide], the Permeability result in series [4] is “Intermediate/high”. In addition, the LogPeff in series [4] is −5.38. For the same compound, the EC50 in series [1] (setting [5]) turned out to be 15 ± 1.8 µM; in series [1] (setting [6]), 10 ± 0.9 µM; in series [2] (Rattus norvegicus, H9c2, 24 h) it was 3.2 ± 0.1 µM; in series [3] (Homo sapiens, MOLM-13, 24 h, read-out: EC50 (μM) MOLM-13 2% O2), 0.32 ± 0.06 µM; in series [3] (Homo sapiens, MOLM-13, 24 h, read-out: EC50 (μM) MOLM-13 19% O2), 0.34 ± 0.04 µM; in the series on hepG2 (HepG2, 24 h), 45 µM.
`CN1CCN(C(=O)Oc2cccc3c2[n+]([O-])c2cccc(O)c2[n+]3[O-])CC1` [Example 8a, 1-hydroxy-6-((4-methylpiperazine-1-carbonyl)oxy)phenazine 5,10-dioxide]: the EC50 in series [1] (setting [17]) was determined as 59 ± 1.1 µM; in series [1] (setting [18]), 53 ± 2 µM; in series [2] (setting [7]), 100 ± 13 µM; in series [3] (setting [8]), 1.4 ± 0.06 µM; in series [3] (setting [9]), 1.5 ± 0.16 µM; in the series with hepG2 (HepG2, 24 h), 30 µM.
`CCOC(=O)COc1cccc2c1[n+]([O-])c1cc(Cl)c(Cl)cc1[n+]2[O-]` [Example 6c, 7,8-dichloro-1-(2-ethoxy-2-oxoethoxy)phenazine 5,10-dioxide]: in series [4], the Permeability entry is given as “Intermediate/high”. Besides, in series [4], the LogPeff is on record as −5.42. In addition, the EC50 in series [1] (setting [15]) amounted to 4.7 ± 0.09 µM; in series [1] (setting [16]) it was 3.1 ± 0.02 µM; in series [2] (setting [10]) it was 1.3 ± 0.2 µM; in series [3] (setting [11]), 0.38 ± 0.04 µM; in series [3] (setting [12]) it was 0.41 ± 0.05 µM; in the series on hepG2 (hepG2, 24 hours of incubation), 12 µM.
